Data published in article PMC8308524, “Interaction between DNA, Albumin and Apo-Transferrin and Iridium(III) Complexes with Phosphines Derived from Fluoroquinolones as a Potent Anticancer Drug” (Pharmaceuticals, 2021).

Assays:
[1] = molecular target: CT DNA; test: Competitive fluorescence quenching of CT DNA-DAPI (minor groove binding); set-up: species or system calf; unit not given here; settings: extended Stern–Volmer plot
Description: It is well known that the cytotoxic activity of various drugs (e.g., fluoroquinolones) depends on interaction with DNA [1]. […] Several well-known DNA binding dyes with well-established binding modes were used: ethidium bromide (EB; intercalation), 4′,6-diamidino-2-phenylindole (DAPI; binding to a minor groove), and methyl green (MG; binding to a major groove). The compounds that can bind to DNA more strongly than the above-mentioned binding dyes (EB, DAPI, or MG) reduce the DNA-binding dye emission due to the replacement of dye. The emission spectra of the CT DNA-binding dye complex were measured at different concentrations of the investigated compounds, (Figure 2; Supplementary Materials, Figures S1–S4).
Furthermore, we conducted a similar competitive experiment using DAPI Figure 3, and Figures S2 and S3 in Supplementary Materials. […] The displacement of bound DAPI from its binding site on CT DNA is much stronger than when EB is used. In order to confirm the quenching mechanism, the fluorescence quenching was analyzed according to Stern–Volmer equations (Figure 3A) and KDSV (dynamic quenching constant) values, which are presented in Figure 3B. Based on Stern–Volmer plots (Figure 3A), the strength of CT DNA-DAPI fluorescence quenching formed the following order: IrPSf > IrPCp > IrPNr > IrPLm.
The stock solution was prepared by dissolving of the calf thymus (CT DNA) in 50 mM phosphate buffer saline (PBS) (pH = 7.4). The CT DNA concentration (C = 5 × 10^−5 M) was determined by a UV spectrophotometer using the molar absorption coefficient […] at 258 nm. The stock solution was stored at 4 °C and used for > 6 days. The luminescent complexes of CT DNA with EB (ethidium bromide), DAPI (4′,6-diamidyno−2-fenyloindol), and MG (methyl green) were prepared by mixing the substrates in the equimolar ratio (CCT DNA-fluorescent dye = 5 × 10^−5 M; 50 mM of the phosphate buffer at pH = 7.4). The solution of the CT DNA fluorescent dye system was titrated in different molar ratios (0.5, 1, 2, 3, 4, 5, 6, 7, 8, 9, and 10) with the tested substances (dissolved in DMSO) and incubated for 1 h for each portion of the investigated compounds. The final concentration of DMSO was 2% in each sample. Photoluminescence measurements were recorded at 298 K using a Cary Eclipse Fluorescence Spectrophotometer. The excitation wavelength was 510 nm for the CT DNA-EB complex, 358 nm for the CT DNA-DAPI complex, and 633 nm for the CT DNA-MG complex. The Inner Filter Effect was considered and the corrected intensity of the emission band was calculated using Equation (1), where: Abs—absorbance at analyzed emission wavelength; If—uncorrected emission intensity. (1) Icor=If 2.303 Abs/ 1−10^Abs
(§1) In order to confirm the quenching mechanism, the fluorescence quenching was analyzed according to Stern–Volmer in Equation (2):(2) I0/I=1+KsvC where I0 and I are the fluorescence intensities in the absence and presence of the quencher, respectively, KSV is the Stern–Volmer quenching constant, and [C] is the concentration of the quencher, respectively.
In same case, it was clearly observed that both static and dynamic quenching occur simultaneously where a nonlinear curve is observed. In such cases, extended Stern–Volmer plots can be used to describe the new situation with the following Equation (3). (3) 1−(I/I0)/C=KDSV(I/I0) +V where I0 and I are the fluorescence intensities in the absence and presence of the quencher, respectively; KDSV is the dynamic quenching constant; [C] is the concentration of the quencher, and V is the volume of the sphere of action. We drew the plots of ([1 − (I/I0)]/[C]) versus I/I0. KDSV is the slope of the plot and the static quenching constant V is calculated from the intercept of the plot.

[2] = molecular target: T1, human serum albumin (HSA) (Homo sapiens, UniProt P02768); test: Fluorescence quenching of human serum albumin; format: binding; settings: 50 mM phosphate buffer pH 7.4, excitation 295 nm, Stern–Volmer
T1 construct: purchased Sigma–Aldrich (Hamburg, Germany)
T1 sequence (P02768 25-609): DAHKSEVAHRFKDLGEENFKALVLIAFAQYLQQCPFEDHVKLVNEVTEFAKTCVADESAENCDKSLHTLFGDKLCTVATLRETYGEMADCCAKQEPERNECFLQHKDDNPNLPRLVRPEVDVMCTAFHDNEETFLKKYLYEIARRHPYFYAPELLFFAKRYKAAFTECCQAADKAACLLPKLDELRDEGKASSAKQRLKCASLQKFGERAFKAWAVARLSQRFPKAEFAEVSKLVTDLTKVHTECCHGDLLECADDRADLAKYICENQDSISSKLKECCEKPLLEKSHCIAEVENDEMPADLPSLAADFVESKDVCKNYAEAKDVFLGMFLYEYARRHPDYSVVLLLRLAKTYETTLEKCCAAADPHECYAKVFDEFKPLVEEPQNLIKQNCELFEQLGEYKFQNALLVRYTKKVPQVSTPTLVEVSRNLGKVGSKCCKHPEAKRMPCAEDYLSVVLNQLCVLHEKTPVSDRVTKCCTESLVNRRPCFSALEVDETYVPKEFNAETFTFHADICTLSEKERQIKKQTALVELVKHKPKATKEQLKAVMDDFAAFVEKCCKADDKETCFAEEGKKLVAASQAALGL
Description: Interest in studying the interaction of metal ions and their compounds with blood plasma proteins, especially with serum albumin (HSA), the most abundant protein in plasma involved in the transport of drugs through the bloodstream, is increasing. This molecule has two main binding sites: site I is located in subdomain IIA and site II is located in subdomain IIIA. […] Changes in the appearance of the Trp-214 residue emission band in HSA, in the presence of the tested compounds, may indicate changes in the protein’s conformation, the association of its subunits or denaturation, or the binding of the compound to protein [53, 56].
as §1
Human serum albumin (HSA) was dissolved in 50 mM phosphate buffer saline (PBS) (pH = 7.4), C (HSA) ≈ 5 × 10^− 5 M. The solution of the HSA was titrated at different molar ratios (0.5, 1, 2, 3, 4, 5, 6, 7, 8, 9 and 10) by IrPCp, IrPNr, IrPSf, IrPLm and phosphine ligands (dissolved in DMSO) and incubated for 1 h with any portion from each of the investigated compounds. The final volume of DMSO was 2% in each sample. Afterward, substances were incubated with HSA solution for 1h at room temperature. The excitation wavelength was equal to 295 nm.

[3] = molecular target: T2, apo-transferrin (apo-Tf) (Homo sapiens, UniProt P02787); test: Fluorescence quenching of apo-transferrin; format: binding; settings: apo-Tf 3.6 × 10^−6 M, 50 mM phosphate buffer pH 7.4, excitation 295 nm, Stern–Volmer
T2 construct: purchased Sigma–Aldrich (Hamburg, Germany)
T2 sequence (P02787 20-698): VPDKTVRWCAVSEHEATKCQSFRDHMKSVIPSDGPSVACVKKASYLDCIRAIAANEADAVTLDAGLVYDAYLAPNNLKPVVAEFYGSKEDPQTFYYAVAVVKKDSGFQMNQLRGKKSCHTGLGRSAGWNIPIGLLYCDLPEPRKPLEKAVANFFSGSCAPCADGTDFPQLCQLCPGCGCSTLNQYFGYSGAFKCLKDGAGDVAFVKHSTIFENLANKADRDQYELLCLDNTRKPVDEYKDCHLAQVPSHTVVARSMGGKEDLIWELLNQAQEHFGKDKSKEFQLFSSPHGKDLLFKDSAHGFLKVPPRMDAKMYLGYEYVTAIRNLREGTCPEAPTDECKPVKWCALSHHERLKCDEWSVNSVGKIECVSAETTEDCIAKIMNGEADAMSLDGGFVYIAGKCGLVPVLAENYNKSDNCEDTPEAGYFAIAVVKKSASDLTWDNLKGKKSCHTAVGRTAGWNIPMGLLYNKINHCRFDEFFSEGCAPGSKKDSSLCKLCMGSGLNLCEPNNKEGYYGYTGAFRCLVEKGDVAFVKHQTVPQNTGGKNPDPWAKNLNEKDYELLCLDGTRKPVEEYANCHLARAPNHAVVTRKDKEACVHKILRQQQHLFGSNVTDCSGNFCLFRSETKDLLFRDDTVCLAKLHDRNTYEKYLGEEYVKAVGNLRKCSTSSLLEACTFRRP
Procedure: A solution of apo-Tf was titrated with increasing concentrations of all the tested compounds, and the fluorescence intensity of apo-Tf was monitored spectrophotometrically (Figure 9A; Supplementary Materials, Figures S6 and S7). At the same time, Ksv values were determined from Stern–Volmer plots (Figure 9B, Table 4).
as §1
Apo-transferrin (apo-Tf) solution was prepared by dissolving the solid protein in 50 mM of phosphate-buffered saline (PBS) (pH = 7.4), C (apo-Tf) ≈ 3,6 × 10^− 6 M. The solution of the Tf was titrated in different molar ratios (0.5, 1, 2, 3, 4, 5, 6, 7, 8, 9, and 10) by IrPCp, IrPNr, IrPSf, IrPLm with corresponding phosphines (dissolved in DMSO) and incubated for 1h with any portion from each of the investigated compounds. The final volume of DMSO was 2% in each sample. The excitation wavelength was equal to 295 nm. The spectra of circular dichroism were recorded using a spectropolarimeter JASCO J-715 (CD and MCD).

[4] = system: pBR322 plasmid DNA; test: DNA strand break analysis by agarose gel electrophoresis; format: biochemical; settings: pBR322, 10 to 500 μM, 1 h, 4 h, 24 h
Description: Since intercalation usually results in relatively large changes in the double helix structure, we assumed that all iridium(III) complexes cause severe DNA cleavage. The binding ability of iridium(III) complexes with another DNA model—pBR322 plasmid DNA, was studied by gel electrophoresis as a target. The degree of plasmid degradation, which is naturally present in a superhelical form (form I), to determine the ability of the compounds to induce single- and/or double-strand damage of the DNA was checked. This process can lead to the formation of the relaxed/nicked (form II) and linear (form III) forms. The degree of DNA degradation was determined in a wide range of the tested compounds’ concentrations (from 10 to 500 μM) at three different incubation times: 1 h, 4 h, and 24 h (Figure 4E1–E3).
It was proven by cyclic voltamperometry, and fluorescence spectroscopy that the studied herein Ir(III) compounds can generate high levels of ROS, therefore the effect of additional H2O2 on the overall ROS production and the associated DNA damages caused by this radical pathway. Furthermore, to confirm the generation of particular types of ROS involved in plasmid degradation, the experiment using DMSO (effective scavenger of ^•OH), SOD (effective scavenger of O2^•−), [50] and NaN3 (effective scavenger of ^1O2) was performed. In order to exclude the effect of the hydrogen peroxide influence on plasmid DNA degradation, we performed an additional gel electrophoresis for H2O2 in different concentrations (Supplementary Materials, Figure S8).
The ability of IrPCp, IrPNr, IrPSf, IrPLm, and phosphine ligands to induce single- or double-strand breaks in plasmid DNA was tested with the pBR322 plasmid (C = 0.5 mg/mL). All compounds were dissolved in DMF; the concentration was kept constant (10% by volume) in the final solution with/without hydrogen peroxide (H2O2, C = 50 μM), superoxide dismutase (SOD, C = 0.62 μM), dimethyl sulfoxide (DMSO, C = 1.4 mM), or sodium azide (NaN3, C = 40 mM). The reaction was also monitored after the addition of various groove binders: methyl green (MG, C = 10 mg/mL), and 4′,6-diamidino-2-phenylindole (DAPI, C = 5 mg/mL). After incubation for 1 h at 37°C, reaction mixtures (20 μL) were mixed with 3 μL of loading buffer (bromophenol blue in 30% glycerol) and loaded on 1% agarose gels, containing EB, in TBE buffer (90 Mm Tris–borate, […], pH = 8.0). Gel electrophoresis was performed at a constant voltage of 100V (4 Vcm-1) for 60 min. The gel was photographed and processed with a Digital Imaging System (Syngen Biotech, Wroclaw, Poland).

Compound | KDSV (dynamic quenching constant) [1] | V (static quenching constant, volume of the sphere of action) [1] | Ksv (HSA fluorescence quenching) [2] | Ksv (apo-Tf fluorescence quenching) [3] | double-strand plasmid damage (formation of linear form III) [4]
CCn1cc(C(=O)O)c(=O)c2cc(F)c(N3CCN(C[P+](c4ccccc4)(c4ccccc4)[Ir]([Cl])[Cl])C(C)C3)c(F)c21.Cc1c(C)c(C)[c-](C)c1C (racemic) [IrPLm, Ir(η^5-Cp*)Cl2PLm] | 2.19×10^3 | 1.45×10^3 | 5.06e+06 M⁻¹ | 19900 M⁻¹ | not presumably capable of double-strand plasmid damage
Cc1c(C)c(C)[c-](C)c1C.O=C(O)c1cn(C2CC2)c2cc(N3CCN(C[P+](c4ccccc4)(c4ccccc4)[Ir]([Cl])[Cl])CC3)c(F)cc2c1=O [IrPCp, Ir(η^5-Cp*)Cl2PCp] | 3.21×10^3 | 2.21×10^3 | 2.08e+06 M⁻¹ | 21800 M⁻¹ | not presumably capable of double-strand plasmid damage
CCn1cc(C(=O)O)c(=O)c2cc(F)c(N3CCN(CP(c4ccccc4)c4ccccc4)C(C)C3)c(F)c21 (stereo not drawn) [PLm] | – | – | 5.3 M⁻¹ | 152 M⁻¹ | –
CC1CN(c2c(F)c(N)c3c(=O)c(C(=O)O)cn(C4CC4)c3c2F)CC(C)N1C[P+](c1ccccc1)(c1ccccc1)[Ir]([Cl])[Cl].Cc1c(C)c(C)[c-](C)c1C (stereo not drawn) [IrPSf, Ir(η^5-Cp*)Cl2PSf] | 3.62×10^3 | 2.42×10^3 | 5.67e+06 M⁻¹ | 13200 M⁻¹ | not presumably capable of double-strand plasmid damage
CC1CN(c2c(F)c(N)c3c(=O)c(C(=O)O)cn(C4CC4)c3c2F)CC(C)N1CP(c1ccccc1)c1ccccc1 (stereo not drawn) [PSf] | – | – | – | 11000 M⁻¹ | –
CCn1cc(C(=O)O)c(=O)c2cc(F)c(N3CCN(CP(c4ccccc4)c4ccccc4)CC3)cc21 [PNr] | – | – | – | 45.6 M⁻¹ | –
CCn1cc(C(=O)O)c(=O)c2cc(F)c(N3CCN(C[P+](c4ccccc4)(c4ccccc4)[Ir]([Cl])[Cl])CC3)cc21.Cc1c(C)c(C)[c-](C)c1C [IrPNr, Ir(η^5-Cp*)Cl2PNr] | 1.72×10^3 | 1.13×10^3 | 698000 M⁻¹ | 20200 M⁻¹ | not presumably capable of double-strand plasmid damage
